For 50 compounds, AC50 results are on record in PMC7822874, “Chemoprotective antimalarials identified through quantitative high-throughput screening of Plasmodium blood and liver stage parasites” (Scientific Reports, 2021).

Peptide text beside a SMILES is read from it. * marks the point of attachment. Boc = CC(C)(C)OC(=O)*; OBn = c1ccc(CO*)cc1

As usually defined, the AC50 is the concentration at which the activity in the assay is half-maximal.

The experiment relates to Plasmodium falciparum Dd2 asexual blood stage parasites. Nature of the experiment: microbe, parasite or virus in culture. Further details: species or system Plasmodium falciparum Dd2 in human erythrocytes; single determination (one 11-point concentration-response curve). Particulars: Plasmodium falciparum, DD2, Erythrocyte, 72 h; read-out: AC50.
For the compound `COc1ccccc1N1CCN(C(=O)c2ccc3c(c2)N(Cc2cc(C)ccc2C)C(=O)c2ccccc2[S+]3(=O)[O-])CC1` [NCGC00109735-01], the AC50 worked out at 9.44 µM. Turning to `O=C(NNc1nc(-c2ccc(Br)cc2)cs1)c1ccco1` [MLS000699189-01], the AC50 came out at 5.31 µM.

On to `CCCCCC(O)(c1ccc(OC)cc1)C(CN1CCOCC1)c1ccccc1` (centres unmarked) [MLS001198946-01], for which the AC50 is 2.11 µM. `Cc1noc(C)c1-c1nccc2c(=O)cc(N(C)c3ccccc3)oc12` [NCGC00416678-01]: the AC50 was 17.2 µM. In the case of `COc1ccc(S(=O)(=O)N2CCN(/C(S)=N/CC3CCCO3)CC2)cc1OC` (centres unmarked) [MLS001035648-01] it was 6.68 µM; in that of `Cc1cnc(C2CCC2)n1C1CCCN(C(=O)CCCc2ccccc2)C1` (centres unmarked) [NCGC00464236-01], 15 µM. The value for `O=C(CC1C(=O)N(Cc2ccccc2)C(=S)N1CCN1CCOCC1)Nc1ccc(F)cc1` (centres unmarked) [MLS000672078-01] was 5.31 µM; that for `CC1CCc2cc(F)ccc2N1C(=O)CSc1nnc2c(n1)[nH]c1ccc(F)cc12` (centres unmarked) [MLS000556689-01] was 8.41 µM.

On to `CC(C)(C)c1ccc(C(=O)N2CCN(C(=O)c3nnn4c3COC(c3ccccc3)C4)CC2)cc1` (centres unmarked) [NCGC00449161-01], for which the AC50 was 10.6 µM. In the case of `CC1CCN(CC2CCCCCN2C(=O)Cc2ccccc2)CC1` (centres unmarked) [NCGC00456721-01] it was 9.44 µM. The value for `COc1ccccc1NC(=O)CSc1nc2c(oc3ccccc32)c(=O)n1-c1ccc(C)cc1` [NCGC00112704-01] was 15 µM; that for `COc1cccc(NC(=O)c2ccc(-c3nnc4ccc(NC(=O)C5CCC5)cn34)cc2)c1` [NCGC00429881-01] was 3.76 µM; that for `Cc1ccc(NC(=O)Cn2c(-c3ccccc3)nc(C)c(CCO)c2=O)cc1Cl` [NCGC00470911-01] was 10.6 µM. Consider `O=C(Nc1ccccc1C(F)(F)F)c1cc(-c2ccccc2O)on1` [MLS000087293-01], for which the AC50 was found to be 2.99 µM. Turning to `O=C(CCC[C@H]1NC[C@@H]2C[C@H]1CN(Cc1ccccc1)C2)NCCCN1CCCc2ccccc21` [NCGC00428635-01], the AC50 came out at 10.6 µM. In the case of `COc1ccc2c(c1)c(CN1CCCCCCN(C)C(=O)[C@@H]3CCC[C@@H]31)cn2C` [NCGC00465190-01] it was 15 µM; in that of `COc1ccc(CCn2c(=N)c(C(=O)NCc3ccco3)cc3c(=O)n4cccc(C)c4nc32)cc1` [MLS000040240-01], 1.68 µM. The value for `CC(C)CC(NC(=O)C(NC(=O)OC(C)(C)C)C(C)C)C(=O)NC(CCC(=O)OCc1ccccc1)C(N)=O` (stereo not drawn) [MLS001304946-01] (Boc-Val-Leu-Glu(OBn)-NH2; configuration not given here) was 8.41 µM. As to `Clc1ccc2c(N3CCCC3)ccnc2c1` [MLS000049600-01], the AC50 stood at 3.76 µM.

Take `COc1ccc(C2c3ccc(O)cc3Oc3ncn4nc(-c5ccncc5)nc4c32)cc1OC` (centres unmarked) [MLS000778948-01]: the AC50 was found to be 15 µM. In the case of `CC1=C[C@@H](CNCCN(C)C)[C@H](C(C)C)C[C@H]1Cc1nnc(C(C)(C)C)o1` [NCGC00401821-01] it was 15.3 µM. As to `COc1ccc(CC(=O)N2CCC(Oc3ncccc3C(=O)N3CCCCC3)C2)cc1` (centres unmarked) [NCGC00434230-01], the concentration at half-maximal activity (AC50) is 9.44 µM. With `CCc1cccc(C)c1NC(=O)CN1CCN(S(=O)(=O)c2ccc(C(C)(C)C)cc2)CC1` [MLS001070982-01], the AC50 is 8.41 µM. Consider `CCn1c(SCc2ccc(C#N)cc2)nnc1-c1ccc(S(=O)(=O)N2CCCCC2)cc1` [MLS000032588-01], for which the AC50 turned out to be 6.68 µM. Turning to `CN1CCCC1CCNS(=O)(=O)c1ccc(Br)cc1` (centres unmarked) [MLS000549971-01], the AC50 stood at 5.96 µM. As for `Cc1ccc(C)c(NC(=O)CN(C)C(=O)c2cc3ccccc3o2)c1` [MLS000770584-01], the AC50 is 13.3 µM. The value for `CS(=O)(=O)c1ccc(C(=O)Nc2ccc(-c3nc4ccccc4[nH]3)cc2)cc1` [MLS001166841-01] was 7.5 µM; that for `COc1ccc(NC(=O)c2sc3nc4c(c(-c5ccc(OC)cc5)c3c2N)C(=O)CC(C)(C)C4)cc1` [NCGC00100714-01] was 1.88 µM.

`O=C1CC(c2ccccc2)N(Cc2ccncc2)CCCN([S+](=O)([O-])c2cccc(F)c2)CCN1` (centres unmarked) [NCGC00467202-01]: the AC50 turned out to be 4.73 µM. In the case of `CCOC(=O)c1c(CN(C)C)oc2cc(CN(C)C)c(O)c(CSc3ccccc3)c12` [MLS000038262-01] it was 0.596 µM.

Regarding `COc1ccc(C2CC(c3cccs3)=NN2C(=O)c2ccc(Br)o2)cc1` (centres unmarked) [MLS000663972-01], the AC50 amounted to 5.31 µM. In the case of `Cc1ccc([S+](=O)([O-])N2CCC(OC3CCN(Cc4ccccc4)CC3)CC2)cc1C` [NCGC00444948-01] it was 15 µM. In the case of `CCCn1c(C)cnc1CC1CCCN([S+](=O)([O-])c2cc(OC)ccc2OC)C1` (centres unmarked) [NCGC00469684-01] it was 10.6 µM. The value for `CCOC(=O)c1cc(C)n(Cc2ccc(OCC)c(OC)c2)c1C` [MLS000521227-01] was 10.6 µM; that for `CCOc1ccc(NC(=O)c2ccc(-c3nnc4ccc(NC(=O)C5CC5)cn34)cc2)cc1` [NCGC00429851-01] was 2.99 µM; that for `COc1ccccc1NS(=O)(=O)c1cc(NC(=O)c2cccc(S(=O)(=O)N(C)C)c2)ccc1N1CCOCC1` [MLS002162226-01] was 7.5 µM. For `CC(C)[C@@H]1CN([S+](=O)([O-])c2ccc(Cl)cc2Cl)C[C@H]1N(C)C` [NCGC00445159-01], the AC50 was found to be 6.68 µM.

For `CC(C)CNC(=O)CN1CN(c2ccccc2)C2(CCN(C(=O)NC3CCCCC3)CC2)C1=O` [NCGC00473208-01], the AC50 is 15 µM. In the case of `Oc1ccccc1CN[C@H]1[C@H](O)[C@@H](N2CCC(Cc3ccccc3)CC2)[C@@H]2OC[C@H]1O2` [NCGC00400924-01] it was 3.44 µM; in that of `COc1ccc2nc(C[C@@H]3C[C@@H](C(C)C)[C@H](CNCc4cccnc4)C=C3C)[nH]c2n1` [NCGC00401578-01], 19.3 µM; in that of `CCOC(=O)c1c([S+](=O)([O-])N2CCCC(C(=O)N3CCN(c4cc(C)ccc4C)CC3)C2)c(C)n(C)c1C` (centres unmarked) [NCGC00138145-01], 1.5 µM. In the case of `O=C(c1ccc(-c2ncc3cnc(-c4ccccc4)cn23)cc1)N1CCc2cccnc21` [NCGC00413975-01] it was 17.2 µM; in that of `C=CCOC(=O)Nc1nc2c(s1)C[C@@H]1[C@](C)(CO)[C@H](O)CC[C@@]1(C)[C@@H]2CC(=O)NC1CCCCC1` [NCGC00395650-01], 3.76 µM. Take `CCCCCCNC(=O)Cc1csc2nc(C)c(-c3cc(C)n(-c4cccc(C)c4)n3)c(=O)n12` [NCGC00473470-01]: the AC50 is 15 µM. For the compound `O=c1cc(-c2ccccc2)c2ccc3c(c2o1)CN(Cc1cccc(Cl)c1)CO3` [NCGC00116370-01], the AC50 was 0.841 µM. In the case of `CCOC(=O)c1c(NC(=O)CSc2nc3ccccc3c(=O)n2-c2ccccc2)sc(C(C)=O)c1C` [MLS000335169-01] it was 13.3 µM; in that of `COCCc1nn2c(=O)cc(COC(=O)C(c3ccccc3)c3ccccc3)nc2s1` [NCGC00129785-01], 2.66 µM; in that of `O=c1oc2c(CN3CCOCC3)c(O)ccc2cc1-c1ccccc1` [NCGC00135757-01], 9.44 µM.

Consider `CN1N=C(C(=O)N2CCc3c([nH]c4ccccc34)C2c2ccccc2Cl)CCC1=O` (centres unmarked) [MLS000733406-01], for which the AC50 amounted to 5.31 µM. In the case of `CN(C(=O)CSc1nc2ccc(NC(=O)CCc3ccccc3)cc2s1)c1ccccc1` [NCGC00118644-01] it was 13.3 µM.
